Laboratory results published in ChEMBL document CHEMBL3351582, “A simple, general approach of allosteric coagulation enzyme inhibition through monosulfated hydrophobic scaffolds” (Bioorg Med Chem Lett, 2014).
Activity calls are given as the source filed them. The calls are words filed in the database; no cut-off is given here.

Experiments:
[1] = target: T1, Coagulation factor VII (Homo sapiens) (UniProt P08709); test: Inhibition of human factor 7a assessed as residual activity at 500 uM by spectrophotometric assay
T1 sequence (whole entry): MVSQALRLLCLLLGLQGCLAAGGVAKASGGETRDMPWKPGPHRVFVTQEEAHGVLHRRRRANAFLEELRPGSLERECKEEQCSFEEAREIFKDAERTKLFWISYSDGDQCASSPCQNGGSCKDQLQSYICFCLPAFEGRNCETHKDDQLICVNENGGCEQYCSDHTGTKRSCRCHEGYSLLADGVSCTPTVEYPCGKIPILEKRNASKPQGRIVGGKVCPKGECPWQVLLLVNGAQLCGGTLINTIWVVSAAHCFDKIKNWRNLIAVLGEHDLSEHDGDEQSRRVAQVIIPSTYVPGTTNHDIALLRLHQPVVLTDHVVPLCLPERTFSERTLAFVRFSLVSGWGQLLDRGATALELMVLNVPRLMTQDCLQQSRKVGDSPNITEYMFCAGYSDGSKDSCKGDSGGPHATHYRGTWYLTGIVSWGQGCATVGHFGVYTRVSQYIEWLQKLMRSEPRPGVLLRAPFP

[2] = target: Prothrombin (Homo sapiens) (UniProt P00734); test: Inhibition of human thrombin using spectrozyme TH as substrate assessed as residual activity at 500 uM by spectrophotometric assay
[3] = target: Coagulation factor X (Homo sapiens) (UniProt P00742); test: Inhibition of human factor 10a assessed as residual activity at 500 uM by spectrophotometric assay
[4] = target: Coagulation factor IX (Homo sapiens) (UniProt P00740); test: Inhibition of human factor 9a assessed as residual activity at 500 uM by spectrophotometric assay
[5] = target: T2, Coagulation factor XII (Homo sapiens) (UniProt P00748); test: Inhibition of human factor 12a assessed as residual activity at 500 uM by spectrophotometric assay
T2 sequence (whole entry): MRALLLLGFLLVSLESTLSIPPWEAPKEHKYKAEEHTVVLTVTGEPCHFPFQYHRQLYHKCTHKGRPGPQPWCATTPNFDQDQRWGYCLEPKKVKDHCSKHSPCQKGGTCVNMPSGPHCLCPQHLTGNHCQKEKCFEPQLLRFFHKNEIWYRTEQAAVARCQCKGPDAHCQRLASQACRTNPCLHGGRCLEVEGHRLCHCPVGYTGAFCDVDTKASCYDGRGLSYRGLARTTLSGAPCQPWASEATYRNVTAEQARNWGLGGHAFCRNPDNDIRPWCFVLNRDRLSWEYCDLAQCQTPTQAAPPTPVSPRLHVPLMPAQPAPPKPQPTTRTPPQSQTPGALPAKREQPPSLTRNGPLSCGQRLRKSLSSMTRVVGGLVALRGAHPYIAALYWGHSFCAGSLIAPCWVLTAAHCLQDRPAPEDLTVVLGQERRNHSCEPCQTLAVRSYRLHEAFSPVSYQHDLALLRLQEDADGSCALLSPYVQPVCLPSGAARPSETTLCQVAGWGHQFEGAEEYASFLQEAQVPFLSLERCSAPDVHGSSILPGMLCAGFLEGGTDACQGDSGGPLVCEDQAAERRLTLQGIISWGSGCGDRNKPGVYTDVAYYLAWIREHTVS

[6] = target: Coagulation factor XI (Homo sapiens) (UniProt P03951); test: Inhibition of human factor 11a assessed as residual activity at 500 uM by spectrophotometric assay
[7] = test system: COc1cc2occ(C(=O)OC(C)(C)C)c2cc1OCc1nc2ccc(OS(=O)(=O)O)cc2s1; settings: Homo sapiens; 400 uM
Description: Non-competitive inhibition of human thrombin using spectrozyme TH as substrate assessed as reduction in substrate Vmax at 400 uM by Michaelis-Menten kinetics

[8] = target: Prothrombin (Homo sapiens) (UniProt P00734); test: Non-competitive inhibition of human thrombin using spectrozyme TH as substrate assessed as effect on substrate Km at 400 uM by Michaelis-Menten kinetics

Sequence of Coagulation factor X (Homo sapiens) (P00742 41-179 limits assumed): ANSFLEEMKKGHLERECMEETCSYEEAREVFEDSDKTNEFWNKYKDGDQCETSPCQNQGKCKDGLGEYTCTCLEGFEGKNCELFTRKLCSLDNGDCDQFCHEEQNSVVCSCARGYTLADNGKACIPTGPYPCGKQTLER
Sequence of Coagulation factor X (Homo sapiens) (P00742 235-488 limits assumed): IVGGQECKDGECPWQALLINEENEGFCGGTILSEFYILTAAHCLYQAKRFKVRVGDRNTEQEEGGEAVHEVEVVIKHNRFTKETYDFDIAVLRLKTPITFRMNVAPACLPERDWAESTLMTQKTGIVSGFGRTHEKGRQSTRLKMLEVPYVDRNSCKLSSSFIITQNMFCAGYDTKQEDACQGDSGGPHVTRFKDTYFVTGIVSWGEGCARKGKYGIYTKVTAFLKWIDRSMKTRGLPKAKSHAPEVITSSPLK
Sequence of Coagulation factor IX (Homo sapiens) (P00740 47-191 limits assumed): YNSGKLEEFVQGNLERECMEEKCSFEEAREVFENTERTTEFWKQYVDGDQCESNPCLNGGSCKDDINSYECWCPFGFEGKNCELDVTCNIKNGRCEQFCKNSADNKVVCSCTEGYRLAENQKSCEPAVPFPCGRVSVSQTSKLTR
Sequence of Coagulation factor IX (Homo sapiens) (P00740 227-461 limits assumed): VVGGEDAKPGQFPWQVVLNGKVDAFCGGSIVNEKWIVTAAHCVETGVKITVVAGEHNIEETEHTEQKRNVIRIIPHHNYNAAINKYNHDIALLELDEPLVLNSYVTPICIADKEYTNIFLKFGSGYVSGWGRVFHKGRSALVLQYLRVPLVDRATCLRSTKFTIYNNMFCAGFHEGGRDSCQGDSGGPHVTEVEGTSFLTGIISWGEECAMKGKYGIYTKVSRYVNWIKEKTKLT
Sequence of Coagulation factor XI (Homo sapiens) (P03951 19-387 limits assumed): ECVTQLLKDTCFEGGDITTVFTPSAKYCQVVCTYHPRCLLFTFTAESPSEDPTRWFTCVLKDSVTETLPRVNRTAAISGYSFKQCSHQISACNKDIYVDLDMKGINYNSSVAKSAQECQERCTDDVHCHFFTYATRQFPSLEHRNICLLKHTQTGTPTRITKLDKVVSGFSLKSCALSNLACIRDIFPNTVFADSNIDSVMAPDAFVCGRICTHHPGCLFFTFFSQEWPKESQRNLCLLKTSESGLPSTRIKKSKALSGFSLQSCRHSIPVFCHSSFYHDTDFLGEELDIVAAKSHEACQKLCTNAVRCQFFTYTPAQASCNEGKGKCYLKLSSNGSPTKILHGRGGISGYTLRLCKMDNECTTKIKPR
Sequence of Coagulation factor XI (Homo sapiens) (P03951 388-625 limits assumed): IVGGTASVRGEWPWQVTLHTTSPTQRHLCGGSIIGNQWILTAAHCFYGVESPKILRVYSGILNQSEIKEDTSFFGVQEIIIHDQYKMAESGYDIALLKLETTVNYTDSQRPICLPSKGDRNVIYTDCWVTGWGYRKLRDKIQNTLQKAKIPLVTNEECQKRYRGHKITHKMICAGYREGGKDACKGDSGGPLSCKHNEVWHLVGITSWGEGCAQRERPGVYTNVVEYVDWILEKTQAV

| Compound | Activity [1] | Activity [2] | Activity [3] | Activity [4] | Activity [5] | Activity [6] | inhibition [8] | Vmax [7] |
| --- | --- | --- | --- | --- | --- | --- | --- | --- |
| CCOC(=O)c1c(C)oc2cc(OC)c(OCc3oc4cc(OC)c(OCc5nc6ccc(OS(=O)(=O)O)cc6s5)cc4c3C(=O)OCC)cc12 | 100% | 104% | 98% | 82% | 100% | 62% | – | – |
| Prothrombin (Homo sapiens) (from UniProt P00734) | – | – | – | – | – | – | – | 24.5 mAU/min/µM |
| Cc1nc2ccc(OS(=O)(=O)O)cc2s1 | 91% | 99% | 77% | 94% | 95% | 52% | – | – |
| CCOC(=O)c1c(COc2cc3c(C(=O)OCC)c(COc4cc5c(C(=O)OCC)c(C)oc5cc4OC)oc3cc2OC)[nH]c2ccc(OS(=O)(=O)O)cc12 | 92% | 46% | 33% | 109% | 97% | 16% | – | – |
| CCOC(=O)c1c(COc2cc3c(C(=O)OCC)coc3cc2OC)[nH]c2ccc(OS(=O)(=O)O)cc12 | 87% | 102% | 34% | 98% | 97% | 111% | – | – |
| CCOC(=O)c1c(Cc2ccccc2)oc2cc(OC)c(OCc3nc4ccc(OS(=O)(=O)O)cc4s3)cc12 | 100% | 108% | 90% | 90% | 96% | 88% | – | – |
| CCOC(=O)c1c(COc2cc3c(C(=O)OCC)c(Cc4ccccc4)oc3cc2OC)[nH]c2ccc(OS(=O)(=O)O)cc12 | 109% | 29% | 37% | 98% | 100% | 0% | – | – |

More lines, main results first:

| Activity [1] | Activity [2] | Activity [3] | Activity [4] | Activity [5] | Activity [6] | inhibition [8] | Compound | Vmax [7] |
| --- | --- | --- | --- | --- | --- | --- | --- | --- |
| 99% | 42% | 0% | 98% | 92% | 0% | – | CCOC(=O)c1c(C)[nH]c2ccc(OCc3c(C(=O)OCC)c4cc(OS(=O)(=O)O)ccc4n3C(=O)OC(C)(C)C)cc12 | – |
| 98% | 30% | 22% | 101% | 100% | 0% | Active | COc1cc2occ(C(=O)OC(C)(C)C)c2cc1OCc1nc2ccc(OS(=O)(=O)O)cc2s1 | – |
| 90% | 100% | 120% | 98% | 90% | 114% | – | CCOC(=O)c1c(C)[nH]c2ccc(OS(=O)(=O)O)cc12 | – |
| 102% | 48% | 105% | 110% | 97% | 120% | – | Cc1nc2ccc(OCc3nc4ccc(OS(=O)(=O)O)cc4s3)cc2s1 | – |
